# Measurements as given in patent US20080031868A1, “HUMAN LYSOZYME MEDICINE, ITS MANUFACTURING METHOD AND APPLICATION THEREOF” (priority 2005, published 2008).
# Marks after values point to notes of the source that are not given here.
# Test system: Staphylococcus aureus MRSABAA-42
# Assay: Bronchus pneumonia mice infected by Staphylococcus aureus MRSA BAA-42, treated by atomization inspiring
# Type: in vivo
# Details: for bacterial number: mice lung
substance,measurement,setting,value
"Human lysozyme: gene recombinant Human Lysozyme (HLZ), active unit 30000 u/mg, batch number 020110; given atomized / as aerosol",accumulative survival number,"2 mg/ml atomization inspired, 30 mice, 14 days",23
same,survival rate (%),"2 mg/ml atomization inspired, 14 days",76.7%
same,Death number(piece),"2 mg/ml atomization inspired, day 1",0 piece
same,Death number(piece),"2 mg/ml atomization inspired, day 2",0 piece
same,Death number(piece),"2 mg/ml atomization inspired, day 3",0 piece
same,Death number(piece),"2 mg/ml atomization inspired, day 4",0 piece
same,Death number(piece),"2 mg/ml atomization inspired, day 5",0 piece
same,Death number(piece),"2 mg/ml atomization inspired, day 6",0 piece
same,Death number(piece),"2 mg/ml atomization inspired, day 7",0 piece
same,Death number(piece),"2 mg/ml atomization inspired, day 9",2 piece
same,Death number(piece),"2 mg/ml atomization inspired, day 10",1 piece
same,Death number(piece),"2 mg/ml atomization inspired, day 11",2 piece
same,Death number(piece),"2 mg/ml atomization inspired, day 12",0 piece
same,Death number(piece),"2 mg/ml atomization inspired, day 13",0 piece
same,Death number(piece),"2 mg/ml atomization inspired, day 14",0 piece
same,survival elevation rate (%),"2 mg/ml atomization inspired, versus infected model group",60.0%
same,improving of survival rate and days over infected control group,"2, 1, 0.5 mg/ml, p<0.05",30-60%
same,lung bacterial number,"by the 14th day, basically negative",< 10 CFU/ml
same,"The 4th day (bacterial number, head incomplete)",dose 0.5,5.0 ± 3.0
same,"The 5th day (bacterial number, head incomplete)","dose 0.5, the 5th day",80.80 ± 14.28
same,"The 4th day (bacterial number, head incomplete)",dose 1,5.5 ± 3.2
same,"The 5th day (bacterial number, head incomplete)","dose 1, the 5th day",78.30 ± 17.86
same,"The 4th day (bacterial number, head incomplete)",dose 2,3.5 ± 2.0
same,"The 5th day (bacterial number, head incomplete)","dose 2, the 5th day",76.70 ± 11.60
same,result of pathology detection of the mice bronchus,"high dose 2 mg/ml, 3rd day","bronchus moderate inflammation, mucous membrane"
same,result of pathology detection of the mice lung tissue,"high dose 2 mg/ml, 3rd day","part of alveolar wall tissue thickening, few monocaryon"
same,result of pathology detection of the mice trachea,"high dose 2 mg/ml, 3rd day",acute moderate inflammation
same,result of pathology detection of the mice bronchus,"high dose 2 mg/ml, 7th day","bronchus moderate inflammation, intact mucous"
same,result of pathology detection of the mice lung tissue,"high dose 2 mg/ml, 7th day",normal basically
same,result of pathology detection of the mice trachea,"high dose 2 mg/ml, 7th day",Normal basically
same,result of pathology detection of the mice bronchus,"high dose 2 mg/ml, 14th day",Normal basically
same,result of pathology detection of the mice bronchus,"low dose 0.5 mg/ml, 3rd day",bronchus moderate inflammation
same,result of pathology detection of the mice lung tissue,"low dose 0.5 mg/ml, 3rd day","the disperse alveolar wall tissue gently thickening,"
same,result of pathology detection of the mice trachea,"low dose 0.5 mg/ml, 3rd day",acute hyperphlogosis
same,result of pathology detection of the mice bronchus,"low dose 0.5 mg/ml, 7th day",bronchus moderate inflammation
same,result of pathology detection of the mice lung tissue,"low dose 0.5 mg/ml, 7th day",the part or disperse alveolar wall tissue gently
same,result of pathology detection of the mice trachea,"low dose 0.5 mg/ml, 7th day",acute hyperphlogosis
same,result of pathology detection of the mice bronchus,"low dose 0.5 mg/ml, 14th day","bronchus moderate inflammation, bleeding"
same,result of pathology detection of the mice trachea,"low dose 0.5 mg/ml, 14th day",acute mild inflammation
same,result of pathology detection of the mice bronchus,"medium dose 1 mg/ml, 3rd day","bronchus moderate inflammation, bleeding, hydroncus,"
same,result of pathology detection of the mice lung tissue,"medium dose 1 mg/ml, 3rd day","bronchiole alveolar wall tissue thickening, few"
same,result of pathology detection of the mice trachea,"medium dose 1 mg/ml, 3rd day",acute moderate inflammation
same,result of pathology detection of the mice bronchus,"medium dose 1 mg/ml, 7th day",bronchus moderate inflammation
same,result of pathology detection of the mice trachea,"medium dose 1 mg/ml, 7th day",acute moderate inflammation
same,result of pathology detection of the mice bronchus,"medium dose 1 mg/ml, 14th day",bronchus moderate inflammation
same,result of pathology detection of the mice lung tissue,"medium dose 1 mg/ml, 14th day",normal basically
same,result of pathology detection of the mice trachea,"medium dose 1 mg/ml, 14th day",Normal basically
same,"pharmacology histology detection of trachea, bronchus, lung tissue","mice killed on the 7th, 14th day after administration",turned to normal basically
same,bacterial number,"atomization inspired 0.5 (15000 u/piece), the 1th day",350.60 ± 21.5 CFU/mL
same,bacterial number,"atomization inspired 0.5 (15000 u/piece), the 3rd day",241.90 ± 16.62 CFU/mL
same,bacterial number,"atomization inspired 0.5 (15000 u/piece), the 5th day",134.60 ± 13.58 CFU/mL
same,bacterial number,"atomization inspired 0.5 (15000 u/piece), the 14th day",57.60 ± 15.37 CFU/mL
same,bacterial number,"atomization inspired 1 (30000 u/piece), 0 day",350 ± 21.5 CFU/mL
same,bacterial number,"atomization inspired 1 (30000 u/piece), the 1th day",254.20 ± 25.42 CFU/mL
same,bacterial number,"atomization inspired 1 (30000 u/piece), the 3rd day",172.70 ± 17.62**^ΔΔ CFU/mL
same,bacterial number,"atomization inspired 1 (30000 u/piece), the 14th day",3.5 ± 0.20 CFU/mL
same,bacterial number,"atomization inspired 2 (60000 u/piece), the 1th day",253.80 ± 22.88 CFU/mL
same,bacterial number,"atomization inspired 2 (60000 u/piece), the 3rd day",165.80 ± 16.08^ΔΔ CFU/mL
same,bacterial number,"atomization inspired 2 (60000 u/piece), the 5th day",76.70 ± 11.60***^ΔΔ CFU/mL
same,bacterial number,"atomization inspired 2 (60000 u/piece), the 14th day",2.50 ± 1.46 CFU/mL
